Experimental data: ChEMBL document CHEMBL1149002, “Antineoplastic agents, 116. An evaluation of the marine ascidian Aplidium californicum” (1986)

Legend:
Format in all cases: functional
P388 [1] = test: In vivo antineoplastic activity against mouse P388 cells assessed as life extension at 46 to 92 ug/kg
P388 [2] = test: In vivo antineoplastic activity against mouse P388 cells assessed as life extension at 46 to 185 ug/kg
P388 [3] = test: In vivo antineoplastic activity against mouse P388 cells assessed as life extension at 3.1 mg/kg

CCCC(=O)O[C@H]1/C(=C/C(=O)OC)C[C@@H]2C[C@H]([C@@H](C)O)OC(=O)C[C@H](O)C[C@@H]3C[C@H](OC(=O)CC(C)C)C(C)(C)[C@](O)(C[C@@H]4C/C(=C/C(=O)OC)C[C@H](/C=C/C(C)(C)[C@]1(O)O2)O4)O3 [BRYOSTATIN 4]
Activity (P388 [1]): 62%

COC(=O)/C=C1/C[C@H]2C[C@]3(O)O[C@H](C[C@@H](O)CC(=O)O[C@@H]([C@@H](C)O)C[C@H]4C/C(=C\C(=O)OC)[C@H](OC(C)=O)[C@@](O)(O4)C(C)(C)/C=C/[C@@H](C1)O2)C[C@H](OC(=O)CC(C)C)C3(C)C [BRYOSTATIN 5]
Activity (P388 [2]): 45%

CC(C)=CCc1cc(O)ccc1O [PRENYLHYDROQUINONE]
Activity (P388 [3]): 38%
